According to patent US8268884B2, “Derivatives of substituted tartaric acid and usage for preparing beta-secretase inhibitors” (Institute of Pharmacology and Toxicology Academy of …, priority 2006, dated 2012):

Legend:
BACE1 = BACE1 (Homo sapiens, UniProt P56817); experiment: Determination of BACE1-inhibiting activity (fluorescence substrate cleavage); type: biochemical; conditions: compound 100 μM; BACE1 1.0 U/ml; substrate 750 nM Rh-EVNLDAEFK-Quencher; sodium acetate buffer pH 4.5; 25° C., 60 minutes; read-out: Inhibitory rate (%)
Protocol: Determination of BACE1-Inhibiting Activity
A sodium acetate analytical buffer solution ([…], pH 4.5) containing BACE1 (1.0 U/ml), a substrate of BACE1 (750 nM Rh-EVNLDAEFK-Quencher), a compound of the present invention (100 μM) was incubated at 25° C. for 60 minutes. The fluorescence intensity was determined by using a TECANGENios fluorimeter with a slit width of 10 nm, an excitation wavelength of 535 nm and an emission wavelength of 585 nm. Inhibitory rate(%)={1−[(S−S0)/(C−C0)]}*100%
C: the fluorescence intensity of the control (BACE1, substrate and analytical buffer solution) as determined after incubating for 60 minutes.
C0: the fluorescence intensity of the control (BACE1, substrate and analytical buffer solution) as determined after incubating for 0 minute.
S: the fluorescence intensity of the sample (BACE1, substrate, compound of the present invention and analytical buffer solution) as determined after incubating for 60 minutes.
S0: the fluorescence intensity of the sample (BACE1, substrate, compound of the present invention and analytical buffer solution) as determined after incubating for 0 minute.

BACE1, sequence (P56817 46-501): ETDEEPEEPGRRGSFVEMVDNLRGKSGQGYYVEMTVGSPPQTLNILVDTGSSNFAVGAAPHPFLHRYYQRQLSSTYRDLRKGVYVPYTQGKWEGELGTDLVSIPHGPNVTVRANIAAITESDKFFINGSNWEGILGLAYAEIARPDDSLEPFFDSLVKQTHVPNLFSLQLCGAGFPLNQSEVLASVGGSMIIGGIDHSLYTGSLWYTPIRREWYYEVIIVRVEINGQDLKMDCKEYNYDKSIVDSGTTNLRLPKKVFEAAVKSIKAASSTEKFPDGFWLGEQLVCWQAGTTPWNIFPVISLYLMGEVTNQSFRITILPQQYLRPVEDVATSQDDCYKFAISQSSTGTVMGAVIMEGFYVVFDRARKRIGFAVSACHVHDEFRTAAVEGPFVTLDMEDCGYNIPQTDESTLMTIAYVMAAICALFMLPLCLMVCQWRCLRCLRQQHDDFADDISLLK

SMILES	melting point	inhibition at 100 µM (BACE1)
O=C(O)c1ccc(CNC(=O)[C@H](O)[C@@H](O)C(=O)NCc2ccccc2)cc1 [Example 12, L-(2R,3R)-4-[(3-benzylcarbamoyl-2,3-dihydroxy-propionylamino)methyl]-benzoic acid]	177 to 178 °C	–
COC(=O)c1ccc(CNC(=O)[C@H](O)[C@@H](O)C(=O)Nc2ccc3ccccc3c2)cc1 [Example 17, methyl L-(2R,3R)-4-{[2,3-dihydroxy-3-(naphthyl-2-carbamoyl)-propionylamino]methyl}-benzoate]	–	45.3%
COC(=O)[C@H](Cc1ccccc1)NC(=O)[C@H](O)[C@@H](O)C(=O)Nc1ccc2ccccc2c1 [Example 19, methyl L-(2R,3R)-2-[2,3-dihydroxy-3-(naphthalen-2-ylcarbamoyl)-propionylamino]-3-phenyl-propionate]	–	35%
COC(=O)C1CCC(CNC(=O)[C@H](O)[C@@H](O)C(=O)Nc2ccc3ccccc3c2)CC1 (stereo partly drawn) [Example 18, methyl L-(2R,3R)-4-{[2,3-dihydroxy-3-(naphthyl-2-carbamoyl)-propionylamino]methyl}-cyclohexanecarboxylate]	–	22.3%
COC(=O)C1CCC(CNC(=O)[C@H](O)[C@@H](O)C(=O)NCc2ccccc2)CC1 (stereo partly drawn) [Example 11, methyl L-(2R,3R)-4-(3-benzylcarbamoyl-2,3-dihydroxy-propionylaminomethyl)-cyclohexanecarboxylate]	153 to 154 °C	–
O=C(O)C1CCC(CNC(=O)[C@H](O)[C@@H](O)C(=O)NCc2ccccc2)CC1 (stereo partly drawn) [Example 15, L-(2R,3R)-4-[(3-benzylcarbamoyl-2,3-dihydroxy-propionylamino)methyl]-cyclohexanecarboxylic acid]	236 to 238 °C	–
O=C(O)[C@H](Cc1ccccc1)NC(=O)[C@H](O)[C@@H](O)C(=O)NCc1ccccc1 [Example 10, L-(2R,3R)-2-(3-benzylcarbamoyl-2,3-dihydroxy-propionylamino)-3-phenyl-propionic acid]	236 to 238 °C	–
COC(=O)c1cc(NC(=O)[C@H](O)[C@@H](O)C(=O)NCc2ccccc2)cc(C(=O)OC)c1 [Example 16, dimethyl L-(2R,3R)-5-(3-benzylcarbamoyl-2,3-dihydroxy-propionylamino)-isophthalate]	–	26.5%
COC(=O)c1ccc(CNC(=O)[C@H](O)[C@@H](O)C(=O)NCc2ccccc2)cc1 [Example 8, methyl L-(2R,3R)-4-[(3-benzylcarbamoyl-2,3-dihydroxy-propionylamino)methyl]-benzoate]	205 to 206 °C	–
COC(=O)CCCNC(=O)[C@H](OC(C)=O)[C@@H](OC(C)=O)C(=O)Nc1ccc(Oc2ccccc2)cc1 [Example 3, methyl L-(2R,3R)-4-[2,3-diacetoxy-3-(4-phenoxy-phenylcarbamoyl)-propionylamino]-butyrate]	–	39%
O=C(O)CCCNC(=O)[C@H](O)[C@@H](O)C(=O)NCc1ccccc1 [Example 14, L-(2R,3R)-4-(3-benzylcarbamoyl-2,3-dihydroxy-propionylamino)-butyric acid]	169 to 170 °C	22.5%
COC(=O)CCCNC(=O)[C@H](O)[C@@H](O)C(=O)NCc1ccccc1 [Example 13, methyl L-(2R,3R)-4-(3-benzylcarbamoyl-2,3-dihydroxy-propionylamino)-butyrate]	142 to 145 °C	–
